Experiments:
[1] = target: T1, Oxysterols receptor LXR-alpha (Homo sapiens, UniProt Q13133); type: functional
T1 sequence (Q13133 whole entry): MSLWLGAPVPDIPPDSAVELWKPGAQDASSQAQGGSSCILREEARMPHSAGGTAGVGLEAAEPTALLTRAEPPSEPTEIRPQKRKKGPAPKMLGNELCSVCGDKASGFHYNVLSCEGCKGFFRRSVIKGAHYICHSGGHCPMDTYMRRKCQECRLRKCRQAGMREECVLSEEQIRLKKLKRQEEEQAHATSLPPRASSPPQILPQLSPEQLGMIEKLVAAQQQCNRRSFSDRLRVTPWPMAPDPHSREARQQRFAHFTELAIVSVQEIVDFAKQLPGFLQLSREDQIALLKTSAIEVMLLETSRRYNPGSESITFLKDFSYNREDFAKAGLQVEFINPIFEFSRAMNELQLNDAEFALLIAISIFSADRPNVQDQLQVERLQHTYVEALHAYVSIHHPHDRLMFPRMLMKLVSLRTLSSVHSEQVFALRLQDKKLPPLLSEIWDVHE

[2] = target: T1, Oxysterols receptor LXR-alpha; type: functional; remark: listed apart in the source
Further: assay procedure not described here.

`CC(C)/N=c1\cc2n(-c3ccc(Cl)cc3)c3ccccc3nc-2cc1Nc1ccc(Cl)cc1` [CLOFAZIMINE] showed an AC50 [1] greater than 30 µM and an AC50 [2] greater than 30 µM.

From ChEMBL document CHEMBL5291721, “A preclinical secondary pharmacology resource illuminates target-adverse drug reaction associations of marketed drugs” (Nat Commun, 2023)
